Test results reported in patent publication EP0435794A1, “Alkenyl- or heteroaryl thio, sulfone, sulfoxy herbicides” (RHONE-POULENC AGROCHIMIE, priority 1989, dated 1991).

What was measured:
Assay in all cases: Exemple A: herbicide application, pre-emergence
Format in all cases: in vivo
Conditions in all cases: notation 0 à 5 after 24 days
Alopecurus myosuroïdes = system: Alopecurus myosuroïdes
Description: (§1) Exemple A - Application herbicide, en prélevée des espèces végétales
(§2) Dans des pots de 7 x 7 x 8 cm remplis de terre agricole légère, on sème un nombre de graines déterminé en fonction de l'espèce végétale et de la grosseur de la graine.
(§3) Les pots sont traités par pulvérisation de bouillie en quantité correspondant à une dose volumique d'application de 500 l/ha et contenant la matière active à la concentration désirée.
(§4) Le traitement avec la bouillie est donc effectué sur des graines non recouvertes de terre (on utilise le terme de bouillie pour désigner, en général, les compositions diluées à l'eau, telles qu'on les applique sur les végétaux).
(§5) La bouillie utilisée pour le traitement est une solution ou suspension de la matière active dans un mélange acétone/eau en proportions 50/50, en présence de 0,05 % en poids de cemulsol NP 10 (agent tensio-actif) constitué d'alkylphénol polyéthoxylé, notamment de nonylphénol polyéthoxylé) et 0,04 % en poids de tween 20 (agent tensio-actif constitué d'un oléate de dérivé polyoxyéthyléné du sorbitol).
(§6) Dans le cas d'une suspension, celle-ci est obtenue en mélangeant et broyant les ingrédients dans un microniseur de façon à obtenir une grosseur moyenne de particules inférieure à 40 microns.
(§7) Après traitement, on recouvre les graines d'une couche de terre d'environ 3 mm d'épaisseur.
(§8) Les pots sont alors placés dans des bacs destinés à recevoir l'eau d'arrosage, en subirrigation, et maintenus pendant 24 jours à température ambiante sous 70 % d'humidité relative.
(§9) Le relevé est effectué de la façon suivante:
(§10) Au bout de 24 jours, on mesure un pourcentage (D) des destructions du nombre de pieds dans le pot traité par rapport au nombre de plantes dans les pots non traités (témoin). On mesure, sur les plantes traitées restantes, le pourcentage de réduction de taille (RT) par rapport aux plantes témoin.
(§11) Le pourcentage du volume foliaire non détruit par le produit est donc donné par la formule: ([100-D] x [100-RT])/(100)= A [formula]
(§12) Cette valeur A est transformée en notation de 0 à 5 selon l'échelle suivante:
(§13) Les résultats obtenus sont présentés après l'exemple B pour des doses d'application de 4000 g/ha à 1000 g/ha.
(§14) Les espèces végétales utilisées dans ces exemples A et B sont: […]

Cyperus esculentus = system: Cyperus esculentus
Description: as §1, §2, §3, §4, §5, §6, §7, §8, §9, §10, §11, §12, §13, §14

Echinochloa crus galli = system: Echinochloa crus galli
Description: as §1, §2, §3, §4, §5, §6, §7, §8, §9, §10, §11, §12, §13, §14

Avena fatua = system: Avena fatua
Description: as §1, §2, §3, §4, §5, §6, §7, §8, §9, §10, §11, §12, §13, §14

Digitaria sanguinalis = system: Digitaria sanguinalis
Description: as §1, §2, §3, §4, §5, §6, §7, §8, §9, §10, §11, §12, §13, §14

C=C(CS(=O)(=O)c1sccc1Br)c1cccc(F)c1 [compound 9, 1-[(3-bromo 2-thiényl)sulfonyl] 2-(3-fluorophényl)2-propène]
ACTIVITE HERBICIDE DE PRELEVEE ALO (Alopecurus myosuroïdes; dose 4 Kg m.a./ha): 5 (O à 10)
ACTIVITE HERBICIDE DE PRELEVEE CYP (Cyperus esculentus; dose 4 Kg m.a./ha): 4 (10 à 30)
ACTIVITE HERBICIDE DE PRELEVEE ECH (Echinochloa crus galli; dose 4 Kg m.a./ha): 5 (O à 10)
ACTIVITE HERBICIDE DE PRELEVEE AVE (Avena fatua; dose 4 Kg m.a./ha): 5 (O à 10)
ACTIVITE HERBICIDE DE PRELEVEE DIG (Digitaria sanguinalis; dose 4 Kg m.a./ha): 5 (O à 10)

C=C(CS(=O)(=O)c1cccs1)c1cc(F)cc(F)c1 [compound 7, 2-(3,5-difluorophényl) 1-(2-thiénylsulfonyl) 2-propène]
ACTIVITE HERBICIDE DE PRELEVEE ALO (Alopecurus myosuroïdes; dose 1 Kg m.a./ha): 5 (O à 10)
ACTIVITE HERBICIDE DE PRELEVEE CYP (Cyperus esculentus; dose 1 Kg m.a./ha): 1 (70 à 90)
ACTIVITE HERBICIDE DE PRELEVEE ECH (Echinochloa crus galli; dose 1 Kg m.a./ha): 5 (O à 10)
ACTIVITE HERBICIDE DE PRELEVEE AVE (Avena fatua; dose 1 Kg m.a./ha): 1 (70 à 90)
ACTIVITE HERBICIDE DE PRELEVEE DIG (Digitaria sanguinalis; dose 1 Kg m.a./ha): 5 (O à 10)

C=C(CS(=O)(=O)c1cccs1)c1cccc(F)c1 [compound 3, 2-(3-fluorophényl) 1-(2-thiénylsulfonyl) 2-propène]
ACTIVITE HERBICIDE DE PRELEVEE ALO (Alopecurus myosuroïdes; dose 1 Kg m.a./ha): 5 (O à 10)
ACTIVITE HERBICIDE DE PRELEVEE CYP (Cyperus esculentus; dose 1 Kg m.a./ha): 5 (O à 10)
ACTIVITE HERBICIDE DE PRELEVEE ECH (Echinochloa crus galli; dose 1 Kg m.a./ha): 5 (O à 10)
ACTIVITE HERBICIDE DE PRELEVEE AVE (Avena fatua; dose 1 Kg m.a./ha): 1 (70 à 90)
ACTIVITE HERBICIDE DE PRELEVEE DIG (Digitaria sanguinalis; dose 1 Kg m.a./ha): 5 (O à 10)
